21 compounds from US10344019B2 (priority 2010, dated 2019) can be followed below.

Common to all, as to assay: microbe, parasite or virus in culture
What all share (type): cell-based

For assay [1], the system named is HCV 2a JFH-1 Rluc cells (dicistronic genotype 2a JFH-1 replicon, RLuc reporter). As to conditions: genotype 2a JFH-1 replicon, read-out: 2a JFH. The procedure:
(§1) Evaluation of cell-based anti-HCV activity: Antiviral potency (EC50) was determined using a Renilla luciferase (RLuc)-based HCV replicon reporter assay. To perform the assay for genotype 1 and 2a JFH-1, HCV 1b RLuc cells (harboring a dicistronic genotype 1b Con1 replicon that encodes a RLuc reporter), or HCV 1a RLuc cells (harboring a dicistronic genotype 1a H77 replicon that encodes a RLuc reporter), or HCV 2a JFH-1 Rluc cells (harboring a dicistronic genotype 2a JFH-1 replicon that encodes a RLuc reporter) were dispensed into 384-well plates. To perform the assay for genotype 2a (with M31 present) or 2b, HCV 2a Rluc or 2b Rluc cells (both with M31 present) harboring a dicistronic NS5A chimeric genotype 2a JFH-1 replicon that encodes a RLuc reporter and either genotype 2a J6 strain NS5A gene or genotype 2b MD2b-1 NS5A gene (based on Los Alamos HCV database isolates, both with M31 present) respectively, were dispensed into 384-well plates. To perform the assay for genotype 3 and 4, HCV 3a RLuc or 4a Rluc cells harboring a dicistronic NS5A chimeric genotype 1b Con1 replicon that encodes a RLuc reporter and either a consensus genotype 3a NS5A gene or genotype 4a NS5A gene (based on Los Alamos HCV database isolates) respectively, were dispensed into 384-well plates. Compounds were re-suspended in DMSO at a concentration of 10 mM and serially diluted in DMSO either manually or using an automated pipeting instrument. Serially diluted compounds were mixed with cell culture media and added to the seeded cells. […] 72 hours later, cells were lysed and Renilla luciferase activity quantified as recommended by the manufacturer (Promega-Madison, Wis.). Non-linear regression was performed to calculate EC50 values.
(In general: A replicon is a self-replicating genome or part of one, used to study replication in cells.)

The subject of assay [2] is HCV 1a RLuc cells (dicistronic genotype 1a H77 replicon, RLuc reporter). The conditions noted are these: genotype 1a H77 replicon, read-out: 1a. Here is the method: as §1
Assay [3] concerns HCV 1b RLuc cells (dicistronic genotype 1b Con1 replicon, RLuc reporter). The conditions noted are these: for EC50: Hepatitis C virus, read-out: 1b (nM); for pEC50: read-out: 1b. The procedure: as §1
Assay [4] concerns HCV 3a RLuc cells (NS5A chimeric genotype 1b Con1 replicon with consensus genotype 3a NS5A gene). Here is the method:
as §1

Setting [5] is: Hepatitis C virus, RLuc reporter.
Setting [6] is: Hepatitis C virus, read-out: 3a, genotype 3a NS5A chimeric 1b Con1 replicon.
Setting [7] is: read-out: 3a, genotype 3a NS5A chimeric 1b Con1 replicon.
[8] abbreviates: Hepatitis C virus, 72 h, Table 2, 72 hours.
[9] abbreviates: Hepatitis C virus, read-out: 3a, Table 2, genotype 3a NS5A chimeric replicon.

pEC50: −log10 of the molar value. Where two headings read alike, the source gives them in different places.

Turning to `COC(=O)N[C@H](C(=O)N1CCC[C@H]1c1ncc(-c2ccc(-c3ccc4cc(-c5cnc([C@@H]6CCCN6C(=O)[C@@H](NC(=O)OC)C(C)C)[nH]5)ccc4c3)cc2)[nH]1)c1ccccc1Cl` [Example 103], the pEC50 in assay [1] (setting [5]), in assay [2] (setting [5]) and in assay [4] (setting [6]) was 9.00 to 12.00 throughout. Also, in assay [3], the EC50 was 0.007 nM.
Consider `COC(=O)N[C@H](C(=O)N1CCC[C@H]1c1nc2c([nH]1)COc1cc(-c3ccc4cc(-c5c[nH]c([C@@H]6CCCN6C(=O)[C@@H](c6ccccc6)N(C)C)n5)ccc4c3)ccc1-2)C1CCOCC1` [Example 182], for which the pEC50 in assay [1] (setting [5]), in assay [2] (setting [5]) and in assay [4] (setting [6]) was 9.00 to 12.00 each time. The EC50 in assay [3] was determined as 0.05 nM.
On to `COC(=O)N[C@H](C(=O)N1CCC[C@H]1c1ncc(-c2ccc3cc(-c4ccc(-c5cnc([C@@H]6C[C@H](C#N)CN6C(=O)[C@H](NC(=O)OC)c6ccccc6)[nH]5)cc4)ccc3c2)[nH]1)C(C)C` [Example 124], for which the pEC50 in assay [1] (setting [5]), in assay [2] (setting [5]) and in assay [4] (setting [6]) was 9.00 to 12.00 throughout. For the same compound, in assay [3], the EC50 was found to be 0.011 nM.
Take `COC(=O)N[C@H](C(=O)N1CCC[C@H]1c1ncc(-c2ccc(-c3ccc4cc(-c5cnc([C@@H]6C[C@H](C#N)CN6C(=O)[C@@H](c6ccccc6)N(C)C)[nH]5)ccc4c3)cc2)[nH]1)C(C)C` [Example 118]: the pEC50 in assay [1] (setting [5]), in assay [2] (setting [5]) and in assay [4] (setting [6]) was 9.00 to 12.00 throughout. Besides, the EC50 in assay [3] was 0.027 nM.
Consider `COC(=O)N[C@H](C(=O)N1CCC[C@H]1c1ncc(-c2ccc3cc(-c4ccc5c(c4)CCc4nc([C@@H]6CCCN6C(=O)[C@H](NC(=O)OC)c6ccccc6)[nH]c4-5)ccc3c2)[nH]1)C(C)C` [Example 142], for which the pEC50 in assay [1] (setting [5]), in assay [2] (setting [5]) and in assay [4] (setting [6]) was 9.00 to 12.00 in each case. The EC50 in assay [3] was found to be 0.013 nM.
Consider `COC(=O)N[C@H](C(=O)N1CCC[C@H]1c1ncc(-c2ccc3cc(-c4ccc(-c5cnc([C@@H]6C[C@@H](C)CN6C(=O)[C@H](NC(=O)OC)c6ccccc6)[nH]5)cc4)ccc3c2)[nH]1)C1CCOCC1` [Example 188], for which the pEC50 in assay [1] (setting [5]), in assay [2] (setting [5]) and in assay [4] (setting [6]) was 9.00 to 12.00 in each case. In addition, the EC50 in assay [3] amounted to 0.012 nM.
With `COC(=O)N[C@H](C(=O)N1CCC[C@H]1c1ncc(-c2ccc(-c3ccc(-c4ccc(-c5cnc([C@@H]6CCCN6C(=O)[C@H](NC(=O)OC)c6ccccc6)[nH]5)cc4)cc3)cc2)[nH]1)C(C)C` [Example 192], the pEC50 in assay [1] (setting [5]), in assay [2] (setting [5]) and in assay [4] (setting [6]) was 9.00 to 12.00 each time. In addition, the EC50 in assay [3] worked out at 0.004 nM.
`COC(=O)N[C@H](C(=O)N1CCC[C@H]1c1ncc(-c2ccc3cc(-c4ccc(-c5cnc([C@@H]6CCCN6C(=O)[C@H](NC(=O)OC)c6cccnc6)[nH]5)cc4)ccc3c2)[nH]1)C(C)C` [Example 161]: the pEC50 in assay [1] (setting [5]), in assay [2] (setting [5]) and in assay [4] (setting [6]) was 9.00 to 12.00 each time. The EC50 in assay [3] was 0.019 nM.
On to `COC(=O)N[C@H](C(=O)N1CCC[C@H]1c1ncc(-c2ccc3cc(-c4ccc(-c5cnc([C@@H]6CCCN6C(=O)C(c6ccccc6)N(C)C)[nH]5)cc4)ccc3c2)[nH]1)C(C)C` (stereo partly drawn) [Example 134], for which the pEC50 in assay [1] (setting [5]), in assay [2] (setting [5]) and in assay [4] (setting [6]) was 9.00 to 12.00 throughout. Further, the EC50 in assay [3] came out at 0.007 nM.
Consider `COC(=O)N[C@H](C(=O)N1CCC[C@H]1c1ncc(-c2ccc3cc(-c4ccc(-c5cnc([C@@H]6CCCN6C(=O)[C@H](NC(=O)OC)c6ccccc6F)[nH]5)cc4)ccc3c2)[nH]1)C(C)C` [Example 148], for which the pEC50 in assay [1] (setting [5]) was 9.00 to 12.00; in assay [2] (setting [5]), 9.00 to 12.00; in assay [3] it was 10.70; in assay [4] (setting [7]), 8.30 to 9.00.
Regarding `COC(=O)N[C@H](C(=O)N1CCC[C@H]1c1ncc(-c2ccc3cc(-c4ccc(-c5cnc([C@@H]6CCCN6C(=O)C6(NC(=O)OC)Cc7ccccc7C6)[nH]5)cc4)ccc3c2)[nH]1)C(C)C` [Example 191], the pEC50 in assay [1] (setting [5]) is under 7.36; in assay [2] (setting [5]), 7.36 to 9.00; in assay [4] (setting [6]), under 8.30. In addition, the EC50 in assay [3] was 0.253 nM.
For the compound `COC(=O)NC(C(=O)N1CCC[C@@]1(F)c1ncc(-c2ccc(-c3ccc4cc(-c5cnc([C@@H]6CCCN6C(=O)[C@@H](NC(=O)OC)C(C)C)[nH]5)ccc4c3)cc2)[nH]1)c1ccc2c(c1)OCO2` (stereo partly drawn) [Example 143], the pEC50 is 7.36 to 9.00 in assay [1] (setting [5]), 9.00 to 12.00 in assay [2] (setting [5]) and under 8.30 in assay [4] (setting [6]). The EC50 in assay [3] amounted to 0.025 nM.
In the same order, the values of `COC(=O)N[C@H](C(=O)N1CCC[C@H]1c1nc2c([nH]1)COc1cc(-c3ccc4cc(-c5c[nH]c([C@@H]6CCCN6C(=O)[C@H](NC(=O)OC)c6ccccc6)n5)ccc4c3)ccc1-2)C(C)C` [Example 176] are 9.00 to 12.00, 9.00 to 12.00, 9.00 to 12.00 and 0.006 nM.
For the compound `COC(=O)N[C@H](C(=O)N1CCC[C@H]1c1nc2c([nH]1)-c1ccc(-c3ccc4cc(-c5cnc([C@@H]6CCCN6C(=O)[C@H](NC(=O)OC)c6ccccc6)[nH]5)ccc4c3)cc1CC2)C1CCOCC1` [Example 174], the pEC50 in assay [1] (RLuc reporter) was 9.00 to 12.00; in assay [2] (RLuc reporter), 9.00 to 12.00; in assay [3] it was 10.82; in assay [4] (setting [6]), 9.00 to 12.00.
Take `COC(=O)N[C@H](C(=O)N1CC2(CC2)C[C@H]1c1ncc(-c2ccc3c(c2)C(F)(F)c2cc(-c4cnc([C@@H]5[C@H]6CC[C@H](C6)N5C(=O)[C@H](NC(=O)OC)c5ccccc5)[nH]4)ccc2-3)[nH]1)C(C)C` [Example 37]: the pEC50 in assay [1] (setting [8]) is 7.36 to 9.00; in assay [2] (setting [8]) it was 9.00 to 12.00; in assay [4] (setting [9]) it was 9.00 to 12.00. Moreover, the EC50 in assay [3] (72 h) is 0.004 nM.
For the compound `COC(=O)N[C@H](C(=O)N1Cc2ccccc2C1c1nc(-c2ccc(-c3ccc4cc(-c5cnc([C@@H]6CCCN6C(=O)[C@@H](NC(=O)OC)C(C)C)[nH]5)ccc4c3)cc2)c[nH]1)C(C)C` (stereo partly drawn) [Example 112], the pEC50 in assay [1] (setting [5]) is 7.36 to 9.00; in assay [2] (setting [5]), 9.00 to 12.00; in assay [4] (setting [6]) it was under 8.30. In assay [3], the EC50 worked out at 0.018 nM.
On to `COC(=O)N[C@H](C(=O)N1CCC[C@H]1c1ncc(-c2ccc(-c3ccc4cc(-c5cnc(C6CCCN6C(=O)[C@H](NC(=O)OC)c6ccccc6)[nH]5)ccc4c3)cc2)[nH]1)C1CCOCC1` (stereo partly drawn) [Example 154], for which the pEC50 in assay [1] (setting [5]), in assay [2] (setting [5]) and in assay [4] (setting [6]) was 9.00 to 12.00 each time. Moreover, the EC50 in assay [3] stood at 0.014 nM.
As for `COC(=O)N[C@H](C(=O)N1CCC[C@H]1c1nc2ccc3cc(-c4ccc5cc(-c6cnc([C@@H]7CCCN7C(=O)[C@H](NC(=O)OC)c7ccccc7)[nH]6)ccc5c4)ccc3c2[nH]1)C1CCOCC1` [Example 175], the pEC50 in assay [1] (setting [5]), in assay [2] (setting [5]) and in assay [4] (setting [6]) was 9.00 to 12.00 throughout. Also, the EC50 in assay [3] turned out to be 0.011 nM.
With `COC(=O)N[C@H](C(=O)N1CCC[C@H]1c1nc2c([nH]1)-c1ccc(-c3ccc4cc(-c5cnc([C@@H]6CCCN6C(=O)[C@H](NC(=O)OC)c6ccccc6)[nH]5)ccc4c3)cc1CC2)C(C)C` [Example 210], the pEC50 in assay [1] (setting [5]), in assay [2] (setting [5]) and in assay [4] (setting [6]) was 9.00 to 12.00 throughout. Besides, the EC50 in assay [3] was 0.008 nM.
Regarding `COC(=O)N[C@H](C(=O)N1CCC[C@H]1c1ncc(-c2ccc3cc(-c4ccc(-c5cnc([C@@H]6CCCN6C(=O)[C@H](NC(=O)OC)c6ccccc6F)[nH]5)cc4)ccc3c2)[nH]1)C(C)C` [Example 149], the pEC50 is 9.00 to 12.00 in assay [1] (RLuc reporter), 9.00 to 12.00 in assay [2] (RLuc reporter), 11.30 in assay [3] and 9.00 to 12.00 in assay [4] (setting [7]).
As for `COC(=O)N[C@H](C(=O)N1CCC[C@H]1c1ncc(-c2ccc3cc(-c4ccc(-c5cnc([C@@H]6C[C@H](C)CN6C(=O)[C@H](NC(=O)OC)c6ccccc6)[nH]5)cc4)ccc3c2)[nH]1)C(C)C` [Example 32], the pEC50 in assay [1] (setting [8]) was 9.00 to 12.00; in assay [2] (setting [8]) it was 9.00 to 12.00; in assay [4] (setting [9]) it was under 8.30. Moreover, in assay [3] (72 h), the EC50 was determined as 0.02 nM.
